Reference: patent publication US20240317775A1, “H4 Antagonist Compounds” (HEPTARES THERAPEUTICS LIMITED, priority 2020, published 2024)

biological target: T1, human H4 receptor (Homo sapiens, UniProt Q9H3N8); experiment: H4 Antagonist Functional cAMP Gi Assay; format: cell-based; details: HEKf cells expressing human H4 receptor; functional antagonist pKb by Cheng-Prusoff vs histamine; read-out: Human H4 cAMP fpKb (converted)
T1 construct: expressed in transfected cells; host or cells: HEKf cells infected with baculovirus
T1 sequence (Q9H3N8 whole entry): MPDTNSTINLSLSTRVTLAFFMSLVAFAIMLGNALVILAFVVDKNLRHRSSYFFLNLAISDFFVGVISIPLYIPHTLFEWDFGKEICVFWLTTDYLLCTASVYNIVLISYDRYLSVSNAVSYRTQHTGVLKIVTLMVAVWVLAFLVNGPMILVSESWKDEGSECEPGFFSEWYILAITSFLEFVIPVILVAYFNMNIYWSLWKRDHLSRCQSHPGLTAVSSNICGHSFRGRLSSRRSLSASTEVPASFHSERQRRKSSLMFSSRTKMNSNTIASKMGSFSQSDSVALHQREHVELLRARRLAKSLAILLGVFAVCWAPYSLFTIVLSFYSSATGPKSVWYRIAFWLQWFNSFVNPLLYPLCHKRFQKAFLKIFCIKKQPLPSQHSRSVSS
Method: HEKf cells were infected overnight using baculovirus expressing the human H4 receptor, then centrifuged at 1,200 rpm for 5 min, frozen in cell freezing medium (Sigma) and stored at −150° C. On the day of assay, the cells were thawed and resuspended in HBSS with 500 nM IBMX to achieve a density of 1,500 cells/well. H4 ligands were prepared in DMSO and stamped by LabCyte ECHO acoustic dispensing at 25 nL in low volume plates. 10 μL/well cells were plated in the presence of 1 μM forskolin, subjected to centrifugation at 1,200 rpm for 1 min and incubated for 30 min prior to addition of Cisbio cAMP detection reagents to a total volume 20 μL/well. […] Following detection reagent addition and shaking at room temperature for 60 min, cAMP accumulation was measured using HTRF on a PheraStar plate reader. EC50 values were generated using a 4-parameter logistical fit equation to quantify agonist potencies. Functional antagonist affinity values were generated using the Cheng-Prusoff equation to calculate a pKb value using the antagonist assay data.

| Structure (SMILES) | Kb [nM] |
| --- | --- |
| CN[C@@H]1CCN(c2nc(N)nc3c2OCC(C)N3)C1 (stereo partly drawn) [Example 1-2, 7-Methyl-4-((R)-3-(methylamino)pyrrolidin-1-yl)-7,8-dihydro-6H-pyrimido[5,4-b][1,4]oxazin-2-amine] | 12.6 |
| CN[C@@H]1CCN(c2nc(N)nc3c2OC[C@@H](C2CC2)N3)C1 [Example 1-6, (R)-7-Cyclopropyl-4-((R)-3-(methylamino)pyrrolidin-1-yl)-7,8-dihydro-6H-pyrimido[5,4-b][1,4]oxazin-2-amine] | 0.631 |
| CN[C@@H]1CCN(c2nc(N)nc3c2OCC(CC(C)C)N3)C1 (stereo partly drawn) [Example 1-7, 7-isobutyl-4-((R)-3-(methylamino)pyrrolidin-1-yl)-7,8-dihydro-6H-pyrimido[5,4-b][1,4]oxazin-2-amine] | 20 |
| CN[C@@H]1CCN(c2nc(N)nc3c2OC[C@@H]([C@H](C)OC)N3)C1 [Example 1-11, (S)-7-((S)-1-Methoxyethyl)-4-((R)-3-(methylamino)pyrrolidin-1-yl)-7,8-dihydro-6H-pyrimido[5,4-b][1,4]oxazin-2-amine] | 15.8 |
| CN[C@@H]1CCN(c2nc(N)nc3c2OCC(C2COC2)N3)C1 (stereo partly drawn) [Example 1-13, 4-((R)-3-(Methylamino)pyrrolidin-1-yl)-7-(oxetan-3-yl)-7,8-dihydro-6H-pyrimido[5,4-b][1,4]oxazin-2-amine] | 31.6 |
| CN[C@@H]1CCN(c2nc(N)nc3c2O[C@@H](C)[C@@H](C)N3)C1 [Example 1-16, (6S,7R)-6,7-Dimethyl-4-((R)-3-(methylamino)pyrrolidin-1-yl)-7,8-dihydro-6H-pyrimido[5,4-b][1,4]oxazin-2-amine] | 31.6 |
| CN[C@@H]1CCN(c2nc(N)nc3c2O[C@H](C)[C@@H](C)N3)C1 [Example 1-17, (6R,7R)-6,7-Dimethyl-4-((R)-3-(methylamino)pyrrolidin-1-yl)-7,8-dihydro-6H-pyrimido[5,4-b][1,4]oxazin-2-amine] | 79.4 |
| CN[C@@H]1CCN(c2nc(N)nc3c2O[C@@H](C)[C@H](C)N3)C1 [Example 1-18, (6S,7S)-6,7-Dimethyl-4-((R)-3-(methylamino)pyrrolidin-1-yl)-7,8-dihydro-6H-pyrimido[5,4-b][1,4]oxazin-2-amine] | 316 |
| CN[C@@H]1CCN(c2nc(N)nc3c2O[C@H](C)[C@H](C)N3)C1 [Example 1-19, (6R,7S)-6,7-Dimethyl-4-((R)-3-(methylamino)pyrrolidin-1-yl)-7,8-dihydro-6H-pyrimido[5,4-b][1,4]oxazin-2-amine] | 79.4 |
| CN[C@@H]1CCN(c2nc(N)nc3c2OCC(C(C)C)N3C)C1 (stereo partly drawn) [Example 1-20, 7-Isopropyl-8-methyl-4-((R)-3-(methylamino)pyrrolidin-1-yl)-7,8-dihydro-6H-pyrimido[5,4-b][1,4]oxazin-2-amine] | 100 |
| CN[C@@H]1CCN(c2nc(N)nc3c2OC[C@]2(C)CCCN32)C1 [Example 1-23, (S)-6a-Methyl-4-((R)-3-(methylamino)pyrrolidin-1-yl)-6a,7,8,9-tetrahydro-6H-pyrimido[5,4-b]pyrrolo[1,2-d][1,4]oxazin-2-amine] | 39.8 |
| CC[C@@H]1COc2c(nc(N)nc2N2CC[C@@H](N)C2)N1 [Example 2-1, (R)-4-((R)-3-Aminopyrrolidin-1-yl)-7-ethyl-7,8-dihydro-6H-pyrimido[5,4-b][1,4]oxazin-2-amine] | 3.16 |
| CO[C@H](C)[C@@H]1COc2c(nc(N)nc2N2CC[C@@H](N)C2)N1 [Example 2-4, (S)-4-((R)-3-Aminopyrrolidin-1-yl)-7-((R)-1-methoxyethyl)-7,8-dihydro-6H-pyrimido[5,4-b][1,4]oxazin-2-amine] | 50.1 |
| CO[C@@H](C)[C@@H]1COc2c(nc(N)nc2N2CC[C@@H](N)C2)N1 [Example 2-5, (S)-4-((R)-3-Aminopyrrolidin-1-yl)-7-((S)-1-methoxyethyl)-7,8-dihydro-6H-pyrimido[5,4-b][1,4]oxazin-2-amine] | 79.4 |
| COC(C)(C)[C@@H]1COc2c(nc(N)nc2N2CC[C@@H](N)C2)N1 [Example 2-6, (S)-4-((R)-3-Aminopyrrolidin-1-yl)-7-(2-methoxypropan-2-yl)-7,8-dihydro-6H-pyrimido[5,4-b][1,4]oxazin-2-amine] | 20 |
| CC[C@@H]1COc2c(nc(N)nc2N2CC(NC)C2)N1 [Example 3-1, (R)-7-Ethyl-4-(3-(methylamino)azetidin-1-yl)-7,8-dihydro-6H-pyrimido[5,4-b][1,4]oxazin-2-amine] | 2 |
| CNC1CN(c2nc(N)nc3c2OC[C@@H](C2CC2)N3)C1 [Example 3-3, (R)-7-Cyclopropyl-4-(3-(methylamino)azetidin-1-yl)-7,8-dihydro-6H-pyrimido[5,4-b][1,4]oxazin-2-amine] | 7.94 |

| Structure (SMILES) | Kb [nM] |
| --- | --- |
| CNC1CN(c2nc(N)nc3c2OC[C@@H]([C@H](C)OC)N3)C1 [Example 3-5, (S)-7-((S)-1-Methoxyethyl)-4-(3-(methylamino)azetidin-1-yl)-7,8-dihydro-6H-pyrimido[5,4-b][1,4]oxazin-2-amine] | 20 |
| CNC1CN(c2nc(N)nc3c2OC[C@@H](C(C)(C)OC)N3)C1 [Example 3-6, (S)-7-(2-Methoxypropan-2-yl)-4-(3-(methylamino)azetidin-1-yl)-7,8-dihydro-6H-pyrimido[5,4-b][1,4]oxazin-2-amine] | 25.1 |
| CC[C@@H]1COc2c(nc(N)nc2N2CC(N)C2)N1 [Example 4-1, (R)-4-(3-Aminoazetidin-1-yl)-7-ethyl-7,8-dihydro-6H-pyrimido[5,4-b][1,4]oxazin-2-amine] | 79.4 |
| CC(C)[C@@H]1COc2c(nc(N)nc2N2CC(N)C2)N1 [Example 4-2, (R)-4-(3-Aminoazetidin-1-yl)-7-isopropyl-7,8-dihydro-6H-pyrimido[5,4-b][1,4]oxazin-2-amine] | 63.1 |
| CN[C@@H]1CCN(c2ncnc3c2OC[C@@H](C2CC2)N3)C1 [Example 7-2, (R)-1-((R)-7-Cyclopropyl-7,8-dihydro-6H-pyrimido[5,4-b][1,4]oxazin-4-yl)-N-methylpyrrolidin-3-amine] | 3.16 |
| CN[C@@H]1CCN(c2ncnc3c2OC[C@@H]([C@@H](C)OC)N3)C1 [Example 7-4, (R)-1-((S)-7-((R)-1-Methoxyethyl)-7,8-dihydro-6H-pyrimido[5,4-b][1,4]oxazin-4-yl)-N-methylpyrrolidin-3-amine] | 31.6 |
| CN[C@@H]1CCN(c2ncnc3c2OC(C)CN3)C1 (stereo partly drawn) [Example 7-5, (3R)—N-Methyl-1-(6-methyl-7,8-dihydro-6H-pyrimido[5,4-b][1,4]oxazin-4-yl)pyrrolidin-3-amine] | 251 |
| CO[C@H](C)[C@@H]1COc2c(ncnc2N2CC[C@@H](N)C2)N1 [Example 8-2, (R)-1-((S)-7-((R)-1-Methoxyethyl)-7,8-dihydro-6H-pyrimido[5,4-b][1,4]oxazin-4-yl)pyrrolidin-3-amine] | 631 |
| CN[C@@H]1CCN(c2nc(C)nc3c2OCC(C(C)C)N3)C1 (stereo partly drawn) [Example 10-1, (3R)-1-(7-Isopropyl-2-methyl-7,8-dihydro-6H-pyrimido[5,4-b][1,4]oxazin-4-yl)-N-methylpyrrolidin-3-amine] | 398 |
| CN[C@@H]1CCN(c2nc(N)nc3c2OCCCN3)C1 [Example 11-1, (R)-4-(3-(Methylamino)pyrrolidin-1-yl)-6,7,8,9-tetrahydropyrimido[5,4-b][1,4]oxazepin-2-amine] | 200 |
| CN[C@@H]1CCN(c2nc(N)nc3c2OCC[C@H](C(C)C)N3)C1 [Example 11-6, (R)-8-Isopropyl-4-((R)-3-(methylamino)pyrrolidin-1-yl)-6,7,8,9-tetrahydropyrimido[5,4-b][1,4]oxazepin-2-amine] | 12.6 |
| CN[C@@H]1CCN(c2nc(N)nc3c2OCC(C)CN3)C1 (stereo partly drawn) [Example 11-7, 7-Methyl-4-((R)-3-(methylamino)pyrrolidin-1-yl)-6,7,8,9-tetrahydropyrimido[5,4-b][1,4]oxazepin-2-amine] | 251 |
| CCC1CNc2nc(N)nc(N3CC[C@@H](NC)C3)c2OC1 (stereo partly drawn) [Example 11-8, 7-Ethyl-4-((R)-3-(methylamino)pyrrolidin-1-yl)-6,7,8,9-tetrahydropyrimido[5,4-b][1,4]oxazepin-2-amine] | 31.6 |
| CN[C@@H]1CCN(c2nc(N)nc3c2OCC[C@@H]2CCCN32)C1 [Example 11-10, (S)-4-((R)-3-(Methylamino)pyrrolidin-1-yl)-6,7,7a,8,9,10-hexahydropyrimido[5,4-b]pyrrolo[1,2-d][1,4]oxazepin-2-amine] | 794 |
| CC(C)[C@H]1CCOc2c(nc(N)nc2N2CC[C@@H](N)C2)N1 [Example 12-2, (R)-4-((R)-3-Aminopyrrolidin-1-yl)-8-isopropyl-6,7,8,9-tetrahydropyrimido[5,4-b][1,4]oxazepin-2-amine] | 39.8 |
| CNC1CN(c2nc(N)nc3c2OCC[C@H](C(C)C)N3)C1 [Example 13-2, (R)-8-Isopropyl-4-(3-(methylamino)azetidin-1-yl)-6,7,8,9-tetrahydropyrimido[5,4-b][1,4]oxazepin-2-amine] | 15.8 |
| CN[C@@H]1CCN(c2ncnc3c2OCC[C@H](C(C)C)N3)C1 [Example 14-2, (R)-1-((R)-8-Isopropyl-6,7,8,9-tetrahydropyrimido[5,4-b][1,4]oxazepin-4-yl)-N-methylpyrrolidin-3-amine] | 100 |

biological target: hERG (Homo sapiens, UniProt Q12809); experiment: hERG single-concentration assay (QPatch automated patch clamp, CHO cells, 30 μM); format: cell-based; details: CHO cells stably expressing hERG
Sequence (Q12809 whole entry): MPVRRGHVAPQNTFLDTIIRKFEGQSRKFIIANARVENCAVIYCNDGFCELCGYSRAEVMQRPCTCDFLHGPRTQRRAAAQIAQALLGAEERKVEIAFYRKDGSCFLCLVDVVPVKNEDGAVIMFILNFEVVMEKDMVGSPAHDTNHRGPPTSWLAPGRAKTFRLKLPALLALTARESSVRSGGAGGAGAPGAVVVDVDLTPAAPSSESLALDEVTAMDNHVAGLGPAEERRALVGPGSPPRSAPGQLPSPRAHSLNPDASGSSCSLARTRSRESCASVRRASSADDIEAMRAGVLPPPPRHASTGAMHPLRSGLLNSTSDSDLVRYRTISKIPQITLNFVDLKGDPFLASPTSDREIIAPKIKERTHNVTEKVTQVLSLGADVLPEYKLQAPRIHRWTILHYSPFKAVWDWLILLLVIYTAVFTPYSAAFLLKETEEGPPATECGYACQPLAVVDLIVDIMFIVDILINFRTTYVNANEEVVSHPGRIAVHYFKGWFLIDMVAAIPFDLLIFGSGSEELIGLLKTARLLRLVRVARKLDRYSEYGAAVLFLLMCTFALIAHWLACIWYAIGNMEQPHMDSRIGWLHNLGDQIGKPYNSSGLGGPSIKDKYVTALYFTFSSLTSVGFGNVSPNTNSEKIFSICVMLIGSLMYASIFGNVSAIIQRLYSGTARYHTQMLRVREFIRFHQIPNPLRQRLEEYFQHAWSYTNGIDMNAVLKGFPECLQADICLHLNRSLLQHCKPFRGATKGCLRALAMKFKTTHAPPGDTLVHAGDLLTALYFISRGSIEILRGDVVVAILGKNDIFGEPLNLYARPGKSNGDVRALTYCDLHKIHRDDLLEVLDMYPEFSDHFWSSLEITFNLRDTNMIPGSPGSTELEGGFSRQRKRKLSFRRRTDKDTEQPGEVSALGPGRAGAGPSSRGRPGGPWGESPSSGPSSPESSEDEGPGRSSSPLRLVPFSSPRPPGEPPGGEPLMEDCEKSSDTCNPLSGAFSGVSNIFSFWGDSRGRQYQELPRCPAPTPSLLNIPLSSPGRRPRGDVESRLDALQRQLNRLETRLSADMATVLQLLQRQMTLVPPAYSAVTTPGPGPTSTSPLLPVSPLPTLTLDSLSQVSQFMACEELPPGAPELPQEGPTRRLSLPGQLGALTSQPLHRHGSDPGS
Text: Series resistance (4-15 MΩ) was compensated by >80%.

| Structure (SMILES) | inhibition at 30 µM [%] |
| --- | --- |
| CN[C@@H]1CCN(c2cc(NCC3CC3)nc(N)n2)C1 [PF-3893787, reference compound] | 67 |
